Experimental data as given in patent US7858608B2, “Bile acid derivatives as FXR ligands for the prevention or treatment of FXR-mediated diseases or conditions” (Intercept Pharmaceuticals, Inc., priority 2006, dated 2010).
Read-outs that look alike come from different tables or passages of the source.

Key:
[1] = test system: FXR regulated genes (SHP, CYP7α1, SREPB-1c, FAS, BSEP); settings: human, 18 h, 10 μM
From the text: Human hepatocyte cell line HepG2 was used for these studies.
The effects of these ligands on FXR responsive genes was then investigated by quantitative reverse transcription PCR (qRT-PCR).

[2] = test system: HepG2 cells; test: Direct cell toxicity on exposure of HepG2 cells; assay type: cell-based, human; settings: HepG2 cells exposed to the ligands
[3] = biological target: T1, FXR (Homo sapiens, UniProt Q96RI1); test: Cell-free FRET assay, recruitment of the SRC1 peptide to FXR; assay type: biochemical; settings: for Potency in activating FXR relative to CDCA (concentration for Scr-1 recruitment lower than CDCA): cell-free FRET assay, versus CDCA
T1 sequence (Q96RI1 1-486): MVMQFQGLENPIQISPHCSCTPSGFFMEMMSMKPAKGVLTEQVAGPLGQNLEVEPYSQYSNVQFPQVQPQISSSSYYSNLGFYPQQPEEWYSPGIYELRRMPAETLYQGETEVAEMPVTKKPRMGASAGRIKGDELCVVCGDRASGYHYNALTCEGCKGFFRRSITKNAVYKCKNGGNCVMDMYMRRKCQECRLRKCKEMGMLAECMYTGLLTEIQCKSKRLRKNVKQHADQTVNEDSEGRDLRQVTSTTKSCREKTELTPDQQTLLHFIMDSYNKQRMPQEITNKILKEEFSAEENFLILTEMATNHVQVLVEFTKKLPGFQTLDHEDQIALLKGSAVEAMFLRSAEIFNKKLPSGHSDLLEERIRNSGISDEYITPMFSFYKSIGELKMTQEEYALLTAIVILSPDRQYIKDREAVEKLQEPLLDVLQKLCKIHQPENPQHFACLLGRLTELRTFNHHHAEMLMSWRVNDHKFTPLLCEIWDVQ
From the text: This technology, a cell free assay, is described in […]., et al. J Med Chem. 2002 15; 45:3569-72).

[4] = test system: FXR or other nuclear receptors; test: Liver cells transfected with viral constructs carrying FXR or other nuclear receptors upstream of the luciferase gene; assay type: cell-based; settings: mouse, rat, and human hepatocytes, luciferase reporter
[5] = biological target: T1, FXR; test: Cell transfection (transactivation) assay in HepG2 cell line; assay type: cell-based; set-up: expressed in transfected cells; host or cells: HepG2; settings: HepG2 cells, 1 μM
Experimental: It was also evaluated if compound (Ia) modulated FXR-regulated genes in a cellular assay using a human hepatocyte cell line (HepG2). […] A detailed description of these methods can be found in the following reference: Fiorucci S., et al. Gastroenterology 2004.

| Structure (SMILES) | Induction of SHP expression [1] | Reduction of the expression of CYP7α1 mRNA [1] | Direct cell toxicity [2] | Efficacy (relative recruitment of the SRC1 peptide to FXR where CDCA = 100%) ([3]; FRET, human FXR, mean ± SE, n = 4) [%] | EC50 ([3]; FRET, human FXR, mean ± SE, n = 4, read-out: Cell-Free Assay EC50) [nM] | Potency in activating FXR relative to CDCA (concentration for Scr-1 recruitment lower than CDCA) [3] | Potency in activating FXR relative to CDCA (concentration for Scr-1 recruitment lower than CDCA) ([3]; listed as compound (Ia)) [fold] | EC50 ([3]; concentrations ranging from 1 nM to 100 μM, read-out: EC50 as FXR ligand in cell free FRET assay (Table 2 summary)) [nM] | Selectivity for FXR over other nuclear receptors [4] | Induction of BSEP mRNA expression [1] | melting point [°C] | Transactivation of FXR [5] | Transactivation of FXR ([5]; listed as compound (Ia)) |
| --- | --- | --- | --- | --- | --- | --- | --- | --- | --- | --- | --- | --- | --- |
| C[C@H](CCC(=O)O)[C@H]1CC[C@H]2[C@@H]3[C@H](O)C[C@@H]4C[C@H](O)CC[C@]4(C)[C@H]3CC[C@]12C [CDCA, chenodeoxycholic acid, reference compound] | 2-3 fold | 60-70% | no direct cell toxicity | – | – | – | – | – | – | – | – | – | – |
| CC[C@H]1[C@@H](O)[C@@H]2[C@H](CC[C@]3(C)[C@@H]([C@H](C)CCC(=O)O)CC[C@@H]23)[C@@]2(C)CC[C@@H](O)C[C@@H]12 [Compound 6-ECDCA, 6-ethyl-chenodeoxycholic acid] | – | – | no direct cell toxicity | – | – | – | – | – | – | – | – | – | – |
| C[C@H](CCNC(=O)OC/C=C/c1ccccc1)[C@H]1CCC2C3C(CC[C@@]21C)[C@@]1(C)CC[C@@H](O)CC1C[C@H]3O (stereo partly drawn) [Compound (Ia), 23-N-Carbacinnamyloxy-3α,7α-dihydroxy-5β-norcholanylamine] | – | – | no direct cell toxicity | 66 | 592 | approximately 20 fold | ~20 | ~500 | selective FXR ligand | approximately 13 fold | 79 to 84 | transactivation | transactivates FXR |
